Measured values taken from patent US9527869B2, “Indolizine derivatives as phoshoinositide 3-kinases inhibitors” (CHIESI FARMACEUTICI S.P.A., priority 2014, dated 2016).

Experiments:
Format in all cases: biochemical
PI3Kα = target: T1, PI3Kα (Homo sapiens, UniProt P42336); test: In vitro determination of the PI3K enzyme inhibitory activity in the cell free assay (ADP-Glo Kinase Assay), PI3Kα; conditions: ATP 50 μM, read-out: PI3K alpha inhibition
T1 construct: purchased Millipore Ltd (Billerica, Mass.)
Procedure, shortened: (§1)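 IC50 values came from four-parameter logistic fitting of ADP-Glo luminescence after 60 min kinase reactions at room temperature. ATP (final) was set per isoform: α 50 μM, β 100 μM, γ 30 μM, δ 80 μM. Substrates were phosphatidylinositol and phosphatidylserine (50 μM in 2× Tris pH 7.5 buffer), with human recombinant enzymes.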

PI3Kγ = target: T2, PI3Kγ (Homo sapiens, UniProt P48736); test: In vitro determination of the PI3K enzyme inhibitory activity in the cell free assay (ADP-Glo Kinase Assay), PI3Kγ; conditions: ATP 30 μM, read-out: PI3K gamma inhibition
T2 construct: purchased Millipore Ltd (Billerica, Mass.)
Procedure, shortened: as §1

PI3Kδ = target: T3, PI3Kδ (Homo sapiens, UniProt O00329); test: In vitro determination of the PI3K enzyme inhibitory activity in the cell free assay (ADP-Glo Kinase Assay), PI3Kδ; conditions: ATP 80 μM, read-out: PI3K delta inhibition
T3 construct: purchased Millipore Ltd (Billerica, Mass.)
Procedure, shortened: as §1

PI3Kβ = target: T4, PI3Kβ (Homo sapiens, UniProt P42338); test: In vitro determination of the PI3K enzyme inhibitory activity in the cell free assay (ADP-Glo Kinase Assay), PI3Kβ; conditions: ATP 100 μM, read-out: PI3K beta inhibition
T4 construct: purchased Millipore Ltd (Billerica, Mass.)
Procedure, shortened: as §1

T3 sequence (O00329 whole entry): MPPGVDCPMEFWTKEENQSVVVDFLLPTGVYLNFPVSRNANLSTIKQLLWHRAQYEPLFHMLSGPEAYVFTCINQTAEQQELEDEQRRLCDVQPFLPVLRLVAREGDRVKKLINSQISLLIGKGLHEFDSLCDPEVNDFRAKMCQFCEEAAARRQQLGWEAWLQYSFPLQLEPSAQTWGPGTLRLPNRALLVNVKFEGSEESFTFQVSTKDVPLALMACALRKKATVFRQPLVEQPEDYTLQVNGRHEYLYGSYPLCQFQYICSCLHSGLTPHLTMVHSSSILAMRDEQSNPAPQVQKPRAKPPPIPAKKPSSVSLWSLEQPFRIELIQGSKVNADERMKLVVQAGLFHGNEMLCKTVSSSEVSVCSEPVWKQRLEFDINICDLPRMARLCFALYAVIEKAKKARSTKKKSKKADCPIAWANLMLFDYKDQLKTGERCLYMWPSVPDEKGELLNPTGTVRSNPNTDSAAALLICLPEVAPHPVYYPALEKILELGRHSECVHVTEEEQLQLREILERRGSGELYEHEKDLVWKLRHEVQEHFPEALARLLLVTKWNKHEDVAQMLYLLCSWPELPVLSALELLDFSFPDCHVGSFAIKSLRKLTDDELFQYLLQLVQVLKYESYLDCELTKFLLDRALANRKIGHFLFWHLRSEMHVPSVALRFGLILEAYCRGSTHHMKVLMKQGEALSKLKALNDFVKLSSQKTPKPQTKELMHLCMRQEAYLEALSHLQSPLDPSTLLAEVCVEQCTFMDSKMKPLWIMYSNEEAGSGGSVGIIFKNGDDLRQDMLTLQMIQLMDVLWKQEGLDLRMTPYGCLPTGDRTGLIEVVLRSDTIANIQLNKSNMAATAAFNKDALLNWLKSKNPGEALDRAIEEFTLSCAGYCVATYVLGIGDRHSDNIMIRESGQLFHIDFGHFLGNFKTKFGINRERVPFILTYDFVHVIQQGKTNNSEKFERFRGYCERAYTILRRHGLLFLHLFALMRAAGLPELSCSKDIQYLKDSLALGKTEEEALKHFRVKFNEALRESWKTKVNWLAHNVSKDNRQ
T3 sequence (P27986 whole entry partner): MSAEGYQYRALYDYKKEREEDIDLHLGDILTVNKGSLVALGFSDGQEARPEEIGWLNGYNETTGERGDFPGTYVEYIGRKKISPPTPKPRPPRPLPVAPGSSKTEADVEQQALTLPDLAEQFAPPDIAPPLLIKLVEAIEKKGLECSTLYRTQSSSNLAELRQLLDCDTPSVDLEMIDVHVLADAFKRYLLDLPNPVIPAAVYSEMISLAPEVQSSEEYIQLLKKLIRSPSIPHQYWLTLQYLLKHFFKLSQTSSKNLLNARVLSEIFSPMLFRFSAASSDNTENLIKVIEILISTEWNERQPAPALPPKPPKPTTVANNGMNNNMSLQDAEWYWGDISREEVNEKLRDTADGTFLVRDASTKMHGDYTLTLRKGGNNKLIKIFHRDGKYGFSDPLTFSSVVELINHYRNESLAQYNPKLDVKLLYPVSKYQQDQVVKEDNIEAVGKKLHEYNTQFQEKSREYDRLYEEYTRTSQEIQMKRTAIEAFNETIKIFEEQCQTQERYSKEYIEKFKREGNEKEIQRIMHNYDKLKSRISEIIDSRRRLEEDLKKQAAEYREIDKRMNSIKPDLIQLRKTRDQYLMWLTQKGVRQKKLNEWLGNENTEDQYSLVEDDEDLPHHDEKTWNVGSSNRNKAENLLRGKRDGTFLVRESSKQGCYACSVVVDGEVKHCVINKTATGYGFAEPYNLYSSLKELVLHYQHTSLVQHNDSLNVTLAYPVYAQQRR
T4 sequence (P42338 whole entry): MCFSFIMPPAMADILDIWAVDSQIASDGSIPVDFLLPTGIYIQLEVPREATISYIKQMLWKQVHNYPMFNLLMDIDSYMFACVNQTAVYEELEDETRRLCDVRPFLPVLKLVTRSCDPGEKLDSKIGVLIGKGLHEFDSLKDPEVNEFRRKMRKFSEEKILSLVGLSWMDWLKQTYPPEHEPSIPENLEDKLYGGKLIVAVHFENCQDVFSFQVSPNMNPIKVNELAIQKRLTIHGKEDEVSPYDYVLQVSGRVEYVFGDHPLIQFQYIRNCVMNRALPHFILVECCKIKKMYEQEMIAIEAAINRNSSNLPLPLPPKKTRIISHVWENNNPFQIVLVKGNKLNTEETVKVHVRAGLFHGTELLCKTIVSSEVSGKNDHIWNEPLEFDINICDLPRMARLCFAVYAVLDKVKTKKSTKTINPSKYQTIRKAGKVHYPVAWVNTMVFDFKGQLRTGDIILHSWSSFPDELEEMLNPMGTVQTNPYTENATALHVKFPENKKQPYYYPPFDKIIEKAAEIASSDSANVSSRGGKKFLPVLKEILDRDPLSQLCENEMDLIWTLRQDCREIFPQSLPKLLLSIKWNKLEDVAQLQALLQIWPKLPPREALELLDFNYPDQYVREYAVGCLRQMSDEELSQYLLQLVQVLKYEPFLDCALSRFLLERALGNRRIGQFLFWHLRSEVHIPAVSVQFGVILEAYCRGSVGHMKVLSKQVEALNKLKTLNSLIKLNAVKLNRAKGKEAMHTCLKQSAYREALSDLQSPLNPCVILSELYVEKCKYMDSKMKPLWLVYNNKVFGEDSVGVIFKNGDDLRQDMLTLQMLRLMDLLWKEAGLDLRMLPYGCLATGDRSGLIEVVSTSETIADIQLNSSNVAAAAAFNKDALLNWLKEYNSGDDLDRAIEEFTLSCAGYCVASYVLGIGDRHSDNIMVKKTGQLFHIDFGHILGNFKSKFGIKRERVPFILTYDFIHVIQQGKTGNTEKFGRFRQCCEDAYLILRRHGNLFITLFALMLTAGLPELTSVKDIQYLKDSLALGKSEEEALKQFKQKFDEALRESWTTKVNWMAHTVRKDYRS
T4 sequence (P27986 whole entry partner): as the sequence (P27986 whole entry partner) above
T1 sequence (P42336 whole entry): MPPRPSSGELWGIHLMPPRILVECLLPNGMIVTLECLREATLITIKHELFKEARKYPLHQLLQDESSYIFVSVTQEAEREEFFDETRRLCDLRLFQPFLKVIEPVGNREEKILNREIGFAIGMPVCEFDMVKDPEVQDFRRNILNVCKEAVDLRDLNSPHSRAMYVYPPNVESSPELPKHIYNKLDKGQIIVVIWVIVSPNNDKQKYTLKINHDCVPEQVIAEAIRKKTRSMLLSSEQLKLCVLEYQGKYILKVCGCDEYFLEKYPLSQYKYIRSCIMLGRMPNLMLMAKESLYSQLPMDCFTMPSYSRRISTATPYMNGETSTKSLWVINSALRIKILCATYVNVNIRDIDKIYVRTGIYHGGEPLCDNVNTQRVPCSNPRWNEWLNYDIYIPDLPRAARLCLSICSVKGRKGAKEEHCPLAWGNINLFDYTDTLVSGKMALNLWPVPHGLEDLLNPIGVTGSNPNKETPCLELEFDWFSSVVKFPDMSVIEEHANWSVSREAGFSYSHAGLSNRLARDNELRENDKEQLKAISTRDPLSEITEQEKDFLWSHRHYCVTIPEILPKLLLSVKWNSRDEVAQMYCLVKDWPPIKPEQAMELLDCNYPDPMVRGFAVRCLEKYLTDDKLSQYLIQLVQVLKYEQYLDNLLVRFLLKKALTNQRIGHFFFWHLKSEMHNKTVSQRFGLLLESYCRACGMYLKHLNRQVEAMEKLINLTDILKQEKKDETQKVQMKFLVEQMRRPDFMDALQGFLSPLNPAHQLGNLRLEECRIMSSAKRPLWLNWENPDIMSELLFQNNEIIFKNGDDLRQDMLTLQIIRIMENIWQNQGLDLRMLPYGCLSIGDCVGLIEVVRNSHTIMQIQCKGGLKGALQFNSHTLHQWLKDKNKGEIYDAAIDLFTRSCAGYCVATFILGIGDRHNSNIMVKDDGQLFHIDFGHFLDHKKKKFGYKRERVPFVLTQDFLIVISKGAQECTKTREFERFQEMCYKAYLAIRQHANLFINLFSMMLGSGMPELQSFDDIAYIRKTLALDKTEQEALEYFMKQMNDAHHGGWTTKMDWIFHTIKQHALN
T1 sequence (P27986 whole entry partner): as the sequence (P27986 whole entry partner) above
T2 sequence (P48736 whole entry): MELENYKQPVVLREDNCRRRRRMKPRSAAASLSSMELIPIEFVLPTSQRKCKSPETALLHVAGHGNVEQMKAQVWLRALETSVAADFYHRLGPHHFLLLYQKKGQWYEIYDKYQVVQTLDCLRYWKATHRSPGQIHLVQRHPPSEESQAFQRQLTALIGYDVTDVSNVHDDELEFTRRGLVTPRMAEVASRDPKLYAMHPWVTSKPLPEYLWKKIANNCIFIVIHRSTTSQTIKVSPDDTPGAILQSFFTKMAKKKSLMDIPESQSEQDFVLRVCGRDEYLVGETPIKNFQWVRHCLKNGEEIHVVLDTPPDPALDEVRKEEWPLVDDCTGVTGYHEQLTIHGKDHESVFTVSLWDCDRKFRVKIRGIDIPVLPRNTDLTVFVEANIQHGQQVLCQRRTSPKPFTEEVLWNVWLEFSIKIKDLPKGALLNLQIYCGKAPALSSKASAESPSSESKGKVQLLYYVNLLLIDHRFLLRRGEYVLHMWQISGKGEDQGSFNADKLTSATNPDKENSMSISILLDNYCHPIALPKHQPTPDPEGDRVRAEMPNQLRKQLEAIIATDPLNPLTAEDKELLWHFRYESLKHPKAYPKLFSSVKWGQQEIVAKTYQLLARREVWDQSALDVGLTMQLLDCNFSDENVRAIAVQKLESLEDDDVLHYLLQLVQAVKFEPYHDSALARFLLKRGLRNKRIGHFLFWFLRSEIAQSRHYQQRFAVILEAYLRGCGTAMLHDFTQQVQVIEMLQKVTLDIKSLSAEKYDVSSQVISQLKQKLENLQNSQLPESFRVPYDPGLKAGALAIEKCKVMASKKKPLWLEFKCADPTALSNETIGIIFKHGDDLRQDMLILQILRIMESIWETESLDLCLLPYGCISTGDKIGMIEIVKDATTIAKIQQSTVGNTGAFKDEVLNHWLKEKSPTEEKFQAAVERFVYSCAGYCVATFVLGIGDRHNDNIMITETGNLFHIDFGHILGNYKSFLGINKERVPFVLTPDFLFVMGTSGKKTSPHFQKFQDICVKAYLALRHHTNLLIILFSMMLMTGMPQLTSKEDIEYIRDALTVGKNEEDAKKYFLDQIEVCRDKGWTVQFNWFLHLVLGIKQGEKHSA

Row | Compound | IC50 (PI3Kα) | IC50 (PI3Kγ) | IC50 (PI3Kδ) | IC50 (PI3Kβ)
1 | CC(c1cc2cccnn2c1-c1cccc(CN(C)C)c1)n1nc(-c2cc(O)cc(F)c2)c2c(N)ncnc21 (centres unmarked) [Example 128, 3-{4-amino-1-[1-(7-{3-[(dimethylamino)-methyl]phenyl}pyrrolo[1,2-b]pyridazin-6-yl)-ethyl]-1H-pyrazolo[3,4-d]pyrimidin-3-yl}-5-fluorophenol] | > 1 µM | > 1 µM | 0.01 to 1 µM | 0.01 to 1 µM
2 | CC(c1cc2ccccn2c1-c1cscn1)n1nc(-c2cc(O)cc(F)c2)c2c(N)ncnc21 (centres unmarked) [Example 129, 3-(4-amino-1-{1-[3-(1,3-thiazol-4-yl)indolizin-2-yl]-ethyl}-1H-pyrazolo[3,4-d]pyrimidin-3-yl)-5-fluorophenol] | 0.01 to 1 µM | 0.01 to 1 µM | 0.01 to 1 µM | 0.01 to 1 µM
3 | CC(c1cc2ccccn2c1-c1csc(CN2CCOCC2)n1)n1nc(-c2cc(O)cc(F)c2)c2c(N)ncnc21 (centres unmarked) [Example 130, 3-[4-amino-1-(1-{3-[2-(morpholin-4-ylmethyl)-1,3-thiazol-4-yl]indolizin-2-yl}ethyl)-1H-pyrazolo-[3,4-d]pyrimidin-3-yl]-5-fluorophenol] | > 1 µM | 0.01 to 1 µM | < 0.01 µM | 0.01 to 1 µM
4 | CC(c1cc2ccccn2c1C#CCN(C)C)n1nc(-c2cc(O)cc(F)c2)c2c(N)ncnc21 (centres unmarked) [Example 131, 3-[4-amino-1-(1-{3-[3-(dimethylamino)prop-1-yn-1-yl]indolizin-2-yl}ethyl)-1H-pyrazolo[3,4-d]-pyrimidin-3-yl]-5-fluorophenol] | 0.01 to 1 µM | 0.01 to 1 µM | 0.01 to 1 µM | 0.01 to 1 µM
5 | CC(c1cc2ccccn2c1N1CCN(C)CC1=O)n1nc(-c2cc(O)cc(F)c2)c2c(N)ncnc21 (centres unmarked) [Example 132, 1-(2-{1-[4-amino-3-(3-fluoro-5-hydroxyphenyl)-1H-pyrazolo[3,4-d]pyrimidin-1-yl]-ethyl}indolizin-3-yl)-4-methylpiperazin-2-one] | 0.01 to 1 µM | 0.01 to 1 µM | < 0.01 µM | 0.01 to 1 µM
6 | CC(c1cc2ccccn2c1-c1ccc(=O)n(CCN2CCOCC2)n1)n1nc(-c2cc(O)cc(F)c2)c2c(N)ncnc21 (centres unmarked) [Example 136, 6-(2-{1-[4-amino-3-(3-fluoro-5-hydroxyphenyl)-1H-pyrazolo[3,4-d]pyrimidin-1-yl]-ethyl}indolizin-3-yl)-2-[2-(morpholin-4-yl)ethyl]-2,3-dihydropyridazin-3-one] | 0.01 to 1 µM | > 1 µM | 0.01 to 1 µM | 0.01 to 1 µM
7 | CC(c1cc2ccccn2c1-c1ccc(OCCN2CCN(C)CC2)nn1)n1nc(-c2cc(O)cc(F)c2)c2c(N)ncnc21 (centres unmarked) [Example 137, 3-{4-amino-1-[1-(3-{6-[2-(4-methylpiperazin-1-yl)ethoxy]pyridazin-3-yl}indolizin-2-yl)-ethyl]-1H-pyrazolo[3,4-d]pyrimidin-3-yl}-5-fluorophenol] | > 1 µM | > 1 µM | < 0.01 µM | 0.01 to 1 µM
8 | CC(c1cc2ccccn2c1-c1ccc(OCCN(C)C)nn1)n1nc(-c2cc(O)cc(F)c2)c2c(N)ncnc21 (centres unmarked) [Example 138, 3-{4-amino-1-[1-(3-{6-[2-(dimethylamino)-ethoxy]pyridazin-3-yl}indolizin-2-yl)-ethyl]-1H-pyrazolo[3,4-d]pyrimidin-3-yl}-5-fluorophenol] | 0.01 to 1 µM | 0.01 to 1 µM | < 0.01 µM | 0.01 to 1 µM
9 | CC(c1cc2ccccn2c1CN1CCOCC1)n1nc(-c2cc(O)cc(F)c2)c2c(N)ncnc21 (centres unmarked) [Example 141, 3-(4-amino-1-{1-[3-(morpholin-4-ylmethyl)indolizin-2-yl]ethyl}-1H-pyrazolo[3,4-d]-pyrimidin-3-yl)-5-fluorophenol] | 0.01 to 1 µM | 0.01 to 1 µM | < 0.01 µM | 0.01 to 1 µM

Other lines, results leading:

Row | IC50 (PI3Kα) | IC50 (PI3Kγ) | IC50 (PI3Kδ) | IC50 (PI3Kβ) | Compound
10 | > 1 µM | 0.01 to 1 µM | < 0.01 µM | 0.01 to 1 µM | CC(c1cc2ccccn2c1-c1ccn(CCN(C)C)c(=O)c1)n1nc(-c2cc(O)cc(F)c2)c2c(N)ncnc21 (centres unmarked) [Example 133, 4-(2-{1-[4-amino-3-(3-fluoro-5-hydroxyphenyl)-1H-pyrazolo[3,4-d]pyrimidin-1-yl]-ethyl}indolizin-3-yl)-1-[2-(dimethylamino)-ethyl]-1,2-dihydropyridin-2-one]
11 | > 1 µM | > 1 µM | < 0.01 µM | 0.01 to 1 µM | CC(c1cc2ccccn2c1-c1ccc(=O)n(CCN2CCCC2)n1)n1nc(-c2cc(O)cc(F)c2)c2c(N)ncnc21 (centres unmarked) [Example 134, 6-(2-{1-[4-amino-3-(3-fluoro-5-hydroxyphenyl)-1H-pyrazolo[3,4-d]pyrimidin-1-yl]-ethyl}indolizin-3-yl)-2-[2-(pyrrolidin-1-yl)-ethyl]-2,3-dihydropyridazin-3-one]
12 | > 1 µM | > 1 µM | 0.01 to 1 µM | 0.01 to 1 µM | CC(c1cc2ccccn2c1-c1ccc(=O)n(CCN2CCN(C)CC2)n1)n1nc(-c2cc(O)cc(F)c2)c2c(N)ncnc21 (centres unmarked) [Example 135, 6-(2-{1-[4-amino-3-(3-fluoro-5-hydroxyphenyl)-1H-pyrazolo[3,4-d]pyrimidin-1-yl]-ethyl}indolizin-3-yl)-2-[2-(4-methylpiperazin-1-yl)ethyl]-2,3-dihydropyridazin-3-one]
13 | > 1 µM | > 1 µM | 0.01 to 1 µM | 0.01 to 1 µM | CC(c1cc2ccccn2c1-c1ccc(OC2CCN(C)CC2)nn1)n1nc(-c2cc(O)cc(F)c2)c2c(N)ncnc21 (centres unmarked) [Example 139, 3-{4-amino-1-[1-(3-{6-[(1-methylpiperidin-4-yl)oxy]pyridazin-3-yl}indolizin-2-yl)ethyl]-1H-pyrazolo-[3,4-d]pyrimidin-3-yl}-5-fluorophenol]
14 | > 1 µM | > 1 µM | 0.01 to 1 µM | 0.01 to 1 µM | CC(c1cc2ccccn2c1-c1ccc(OCCC2CCN(C)CC2)nn1)n1nc(-c2cc(O)cc(F)c2)c2c(N)ncnc21 (centres unmarked) [Example 140, 3-{4-amino-1-[1-(3-{6-[2-(1-methylpiperidin-4-yl)ethoxy]pyridazin-3-yl}indolizin-2-yl)-ethyl]-1H-pyrazolo[3,4-d]pyrimidin-3-yl}-5-fluorophenol]
15 | > 1 µM | 0.01 to 1 µM | 0.01 to 1 µM | > 1 µM | CC(c1cc2ccccn2c1CN1CCC2(CCCN(C)C2)CC1)n1nc(-c2cc(O)cc(F)c2)c2c(N)ncnc21 (centres unmarked) [Example 142, 3-(4-amino-1-{1-[3-({2-methyl-2,9-diazaspiro[5.5]-undecan-9-yl}methyl)indolizin-2-yl]ethyl}-1H-pyrazolo[3,4-d]-pyrimidin-3-yl)-5-fluorophenol]
16 | 0.01 to 1 µM | 0.01 to 1 µM | < 0.01 µM | 0.01 to 1 µM | CC(c1cc2ccccn2c1CN1CCC2(CCN(C)CC2)CC1)n1nc(-c2cc(O)cc(F)c2)c2c(N)ncnc21 (centres unmarked) [Example 143, 3-(4-amino-1-{1-[3-({9-methyl-3,9-diazaspiro[5.5]undecan-3-yl}methyl)indolizin-2-yl]ethyl}-1H-pyrazolo[3,4-d]pyrimidin-3-yl)-5-fluorophenol]
17 | 0.01 to 1 µM | 0.01 to 1 µM | 0.01 to 1 µM | 0.01 to 1 µM | CC(c1cc2ccccn2c1CN1CC2(CCN(C)CC2)C1)n1nc(-c2cc(O)cc(F)c2)c2c(N)ncnc21 (centres unmarked) [Example 144, 3-(4-amino-1-{1-[3-({7-methyl-2,7-diazaspiro[3.5]nonan-2-yl}methyl)indolizin-2-yl]ethyl}-1H-pyrazolo[3,4-d]pyrimidin-3-yl)-5-fluorophenol]
